Read-outs that look alike come from different tables or passages of the source.
Assays:
PANC-1 = assay: MTT cytotoxicity (PDT and dark), PANC-1; format: cell-based, Human; settings: Homo sapiens, light or radiation study, 3 h exposure, 660 nm laser 0.5 J/cm^2, MTT after 24 h
Description: (§1) B16F10 (KCLB80008), MIA PaCa-2 (KCLB21420), PANC-1 (KCLB21469), HT-29 (KCLB30038), AsPC-1 (KCLB21682), and Raw 264.7 (KCLB40071) cells were procured from the Korean Cell Line Bank (KCLB, Seoul, Republic of Korea). AsPC-1 and RAW264.7 were thawed and maintained in RPMI-1640 media (Life Technologies corporation, Carlsbad, CA, USA) supplemented with 10% fetal bovine serum (Life Technologies corporation, USA) and 1% penicillin and streptomycin (Life Technologies corporation, USA), while MIA PaCa-2, PANC-1, HT-29, and B16F10 cell lines were cultured in DMEM (Life technologies corporation, USA) containing 10% fetal bovine serum and 1% penicillin and streptomycin. All the cells were cultured at 37 °C in a 5% CO2 incubator.
(§2) After seeding B16F10 or MIA PaCa-2 at a density of 5 × 10^3 cells/well and PANC-1, HT-29, or AsPC-1 at a density of 1 × 10^4 cells/well in 96-well plates, the cells were incubated overnight at 37 °C in a CO2 incubator. The cells were exposed to different doses of either chlorin e6 or rhodin g7 7^1-ethyl ester (0, 2.5, 5, 10, 20, 40, and 80 µM) for 3 h. After the incubation, the cells were either subjected to a 660 nm laser with a power density of 50 mW (0.5 J/cm^2) or not and were further incubated for 24 h at 37 °C. Moreover, the MTT assay was used to analyze the cell viability. The absorbance values of 540 nm were then measured using a microplate reader (Multiskan GO, Thermo Fisher Scientific, Oy, Ratastie 2, FI-01620 Vantaa, Finland).

[1] = MTT cytotoxicity (PDT and dark), PANC-1; format: cell-based, Human; settings: human, PANC-1 cells, no illumination, MTT after 24 h
Description: as §1, §2

[2] = MTT cytotoxicity (PDT and dark), RAW264.7 normal cell line; format: cell-based, Murine; settings: mouse, RAW264.7 cells (normal macrophage), RAW264.7 normal macrophage
Description: as §1, §2

BV2 cells = assay: Cellular uptake (plate reader and FOBI), BV2; format: cell-based; settings: 3 h; for fluorescence intensity of treated cells compared to control (uptake): BV2, 100 μΜ
Method: A quantitly of 5 × 10^5 of MIA PaCa-2 and 2 × 10^5 of BV2 cells per well were seeded in a 6-well plate and were treated with or without chlorin e6 or rhodin g7 7^1-ethyl ester (10 and 100 μΜ). After 3 h, the cells were harvested and washed twice with 1 × phosphate buffered saline (DPBS) to remove the remaining chlorin e6 or rhodin g7 7^1-ethyl ester from the culture media and cell surfaces. The cells from each well were resuspended in 1 mL of 1 × DPBS and measured using FOBI and a plate reader. chlorin e6 or rhodin g7 7^1-ethyl ester-treated cells were divided into triplicate wells of a black-walled 96-well plate, each containing 100 µL. The measurement was taken immediately after aliquoting using a Spark Multimode Microplate Reader (Tecan Trading AG, Männedorf, Switzerland) for spectroscopy. The fluorescence was measured using excitation and emission peaks of 405 nm and 500–800 nm. For the FOBI analysis, 700 µL of chlorin e6 or rhodin g7 7^1-ethyl ester-treated cells was added to the e-tubes, and bioimaging was performed immediately using the fluorescence-labeled organism bioimaging instrument (FOBI) system (Cellgentek, Daejeon, Republic of Korea). Each image was exposed for 0.3 s, with a 405 nm wavelength LED, and an emmission light of 502 nm. The results were further quantitatively measured using the “NEOimage FOBI” software.

[3] = tested on: B16F10, MIA PaCa-2, PANC-1, HT-29, AsPC-1; assay: MTT cytotoxicity, statements over all cell lines of the panel; format: cell-based
Description: as §1
as §2, with “The cells were exposed to different doses of either chlorin e6 or rhodin g7 7^1-ethyl ester (0, 2.5, 5, 10, 20, 40, and 80 µM) for 3 h.” left out

[4] = as above; format: cell-based; settings: mouse (B16F10), human (MIA PaCa-2, PANC-1, HT-29, AsPC-1), B16F10, MIA PaCa-2, PANC-1, HT-29 and AsPC-1 cells, read-out: cellular viability
Description: as §1
as §2, with “The cells were exposed to different doses of either chlorin e6 or rhodin g7 7^1-ethyl ester (0, 2.5, 5, 10, 20, 40, and 80 µM) for 3 h.” left out

MIA-PaCa-2 cells = assay: Detection of ROS with DCFH-DA after PDT; format: cell-based, Human; settings: for ROS level after PDT (DCFH-DA): MIA-PaCa-2, 1, 5, 10, 20, 40, and 80 μM, 3 h, laser
Method: MIA-PaCa-2 cells (density: 5 × 10^3 cells/well) were seeded onto 96-well plates and incubated in a complete medium for 24 h at 37 °C. Then, the medium was replaced with a fresh culture medium containing chlorin e6 or rhodin g7 7^1-ethyl ester at different concentrations (1, 5, 10, 20, 40, and 80 μM) and then incubated for 3 h at 37 °C. After incubation, the cells were washed three times with PBS, and the cells were irradiated using a 630 nm laser at a power of 100 mW/cm^2 for 300 s. After irradiation, a fresh culture medium containing 20 μM dichlorodihydrofluorescin diacetate (DCFH-DA) was added, and the cells were incubated for another 20 min. Fluorescence detection of DCFH-DA was performed via the fluorescence microplate reader using the Spark Multimode Microplate Reader (Tecan Trading AG, Männedorf, Switzerland).

[5] = MTT cytotoxicity (PDT and dark), HT29; format: cell-based, Human; settings: human, HT-29 cells, no illumination, MTT after 24 h
Description: as §1, §2

HT29 = assay: MTT cytotoxicity (PDT and dark), HT29; format: cell-based, Human; settings: Homo sapiens, HT-29, light or radiation study, 3 h exposure, 660 nm laser 0.5 J/cm^2, MTT after 24 h
Description: as §1, §2

[6] = 660 nm laser 0.5 J/cm^2, MTT after 24 h, read-out: IC50, PDT cytotoxicity
[7] = no illumination, MTT after 24 h, read-out: IC50, dark cytotoxicity
[8] = complete absence of illumination, read-out: IC50 values dark toxicity, range over cell lines
[9] = light or radiation study, PDT, light dose 0.5 J/cm^2, five cancer cell lines, read-out: IC50 values post illumination, range over cancer cell lines

Structure (SMILES)	IC50 (PANC-1) [µM]	IC50 [1] [µM]	IC50 [2, 6] [µM]	IC50 [2, 7] [µM]	fluorescence intensity of treated cells compared to control (uptake) (BV2 cells)	IC50 [3, 8] [µM]	IC50 [3, 9] [µM]	ROS level after PDT (DCFH-DA) (MIA-PaCa-2 cells)	IC50 [5] [µM]	IC50 (HT29) [µM]	other results
C=Cc1c(C)c2cc3nc(c(CC(=O)O)c4[nH]c(cc5nc(cc1[nH]2)C(C)=C5CC)c(C)c4C(=O)O)[C@@H](CCC(=O)O)[C@@H]3C [chlorin e6]	17.9	302	45.4	456	significant increase in fluorescence intensity	250 to 564	17.6 to 33.8	dose-dependent increase in ROS	543	28.1	cellular viability ([3]; chlorin e6-PDT, concentrations greater than 59.8 µM, all cell lines): 10%; viability at 7.8 µM ([3]; chlorin e6-PDT, dose of 7.8 µM, all cell lines, vs vehicle-treated control): ≥ 90%; viability ([4]; chlorin e6 dark, concentrations as high as 169.2 µM): ≥ 90%; viability ([4]; chlorin e6 dark, concentrations up to 729.4 µM, all cell lines): < 10%
C=Cc1c(C)c2cc3nc(c(CC(=O)O)c4[nH]c(cc5nc(cc1[nH]2)C(C(=O)OCC)=C5CC)c(C)c4C(=O)O)[C@@H](CCC(=O)O)[C@@H]3C [rhodin g7 7^1-ethyl ester]	8.4	279	55.2	466	significant increase in fluorescence intensity	163 to 389	8.4 to 49.1	dose-dependent increase in ROS	223	30.1	fluorescence intensity relative to chlorin e6 (uptake) (BV2 cells; BV2, FOBI system, 10 μΜ): 1.1 times; fluorescence intensity relative to chlorin e6 (uptake) (BV2 cells; BV2, FOBI system, 100 μΜ): 1.4 times; fluorescence intensity relative to chlorin e6 (uptake) (BV2 cells; BV2, plate reader, 10 μΜ): 2.2 times; fluorescence intensity relative to chlorin e6 (uptake) (BV2 cells; BV2, plate reader, 100 μΜ): 2 times; higher cytotoxicity compared to chlorin e6 ([3]; laser 0.5 J/cm^2, majority of the cancer cell lines): 2 fold; cellular viability ([3]; rhodin g7 7^1-ethyl ester PDT, concentrations higher than 53.7 µM, all cell lines): 10%; viability ([4]; rhodin g7 7^1-ethyl ester dark, concentrations as high as 37.4 µM): ≥ 90%; viability ([4]; rhodin g7 7^1-ethyl ester dark, doses as high as 660 µM, all cell lines): < 10%; ROS production compared to chlorin e6-PDT (MIA-PaCa-2 cells; MIA-PaCa-2, all concentrations (1-80 μM)): likely to produce more ROS than chlorin e6-PDT

Reference: PMC11240924, “Isolation, Identification, and Biological Activities of a New Chlorin e6 Derivative” (International Journal of Molecular Sciences, 2024)
